Source: patent US20140242599A1, “MATERIALS AND METHODS FOR DETERMINING SENSITIVITY POTENTIAL OF COMPOUNDS” (ELECTROPHORETICS LIMITED, priority 2011, published 2014)

Legend:
[1] = system: Aldo-keto reductase family 1, member C2 (AKR1C2); test: Western Blot quantification of AKR1C2 in keratinocyte cell extracts; format: cell-based; conditions: primary human keratinocytes, 24 h exposure, FIG. 4
Experimental: (§1) Primary human keratinocytes were obtained from Provitro (Berlin, Germany). Cells were seeded at 3×10E5 cells per 10 cm dish. Cells were grown in serum free supplemented keratinocyte growth medium (Provitro) to 80-90% density prior to treatment. Cells were grown at 37° C. in 5% CO2. Second and third passages post-cryopreserved seedings were used for experiments
(§2) Test chemicals were added and the plates were incubated for 24 hours at 37° C. in a 5% CO2 humidified incubator. When a chemical was dissolved in DMSO, a final concentration of 0.1% DMSO was used in the relevant negative control. After 24 h incubation, cells were harvested and washed twice in PBS.
Cells were lysed in four volumes of 100 mM TEAB (triethylammonium bicarbonate), pH 8.5+0.1, 1 mM TCEP (tris[2-carboxyethyl]phosphine*HCl), 0.1% SDS. After suspending the cell pellet in lysis buffer the suspension was heated at 95° C. for ten minutes in a thermomixer ([Eppendorf, Thermomixer comfort). […]
(§3) As an alternative approach to find predictive markers for sensitizing potential we measured the concentration of biomarkers using commercially available immunoassays to measure the levels of three biomarkers. The three proteins to be measured by Western Blot or ELISA were selected on the basis of a review of literature references to biomarkers of stress toxicity pathways. […]

[2] = system: Heat shock 70 kDa protein 1 (HSP70, HSPA1A; HSPA1B); test: HSP70-specific ELISA of keratinocyte cell extracts; format: cell-based; conditions: primary human keratinocytes, 24 h exposure, FIG. 3
[3] = mouse, in vivo; cited from earlier work
Nrf2 pathway = conditions: cited from earlier work
[4] = system: Primary human keratinocytes; test: TMT proteomic profiling of exposed keratinocytes, PLS score plot of 102 protein biomarkers; format: cell-based; conditions: second study, four donors, FIG. 2
[5] = system: Metallothionein-1G (MT1G); test: Western Blot quantification of MT1G in keratinocyte cell extracts; format: cell-based; conditions: primary human keratinocytes, 24 h exposure, FIG. 5
Experimental: as §1, §2
Cells were lysed in four volumes of 100 mM TEAB (triethylammonium bicarbonate), pH 8.5+0.1, 1 mM TCEP (tris[2-carboxyethyl]phosphine*HCl), 0.1% SDS. […]
as §3
. […] Effects of contact sensitizers and irritants on MT1G production was determined by Western Blot analysis using MT1G specific antibodies (clone UC1MT, Biozol, Eching, Germany). […]

[6] = system: luciferase gene under the control of the ARE of the AKR1C2 gene in HaCaT keratinocytes; conditions: screen of 43 sensitizers and 24 non-sensitizers; cited from earlier work

O=CC=Cc1ccccc1 [CA, 3-phenyl-2-Propenal]
AKR1C2 induction (Western Blot) [1]: only induced in CA exposed samples
HSP70 induction (ELISA) [2]: most strongly induced
LLNA EC3 (%) [3]: 2.8%
LLNA outcome / sensitizer potency class [3]: (moderate)

O=[N+]([O-])c1ccc(Cl)c([N+](=O)[O-])c1 [DNCB, 1-chloro-2,4-dinitrobenzene]
reactivity of BDKs, NEHKs and THP-1 (Nrf2 pathway) (Nrf2 pathway): high reactivity
HSP70 induction (ELISA) [2]: small

CN(C)C(=S)SSC(=S)N(C)C [TMTD, Tetramethyl thiuram disulfide]
relative distance from the centre of the PLS score plot (size of response) [4]: smaller distance to the centre of the plot
MT1G induction (Western Blot) [5]: most strongly induced
HSP70 induction (ELISA) [2]: most strongly induced
LLNA EC3 (%) [3]: 5.2%
LLNA outcome / sensitizer potency class [3]: (moderate)

O=C(Oc1ccccc1)c1ccccc1 [phenyl benzoate]
KeratinoSens identification of sensitizer [6]: false negative
